In experiment [1] the test system is patient-derived AML cells. Put plainly: Viability (MTS) of patient-derived AML samples (PDX AMLs). Format: cell-based, human. The settings on record: hierarchical clustering, MTS 24 h. Here is the method: AML cell lines (5×10^3 cells/well) were seeded in 96-well plates and grown for 24 to 96 h in serum (10%)-containing medium in the presence or absence of inhibitors at the indicated concentrations. Proliferation was analyzed by means of an MTS assay using the CellTiter 96 Aqueous One Solution Cell Proliferation Assay (Promega, Madison, Wis., USA), according to the manufacturer's instructions. Data are mean with standard deviation from three independent experiments in technical triplicates. For the screening of 160 compounds from the UC library, the cell metabolic activity was assessed at 24 hours of treatment of MOLM-13 cells. Top 15 candidates were re-screened at 2 μM, and the cell metabolic activity was determined at 24 hours of treatment. In certain experiments, cell viability was determined by staining the cells with trypan blue at a 1/2 dilution and counting total number of viable cells upon treatment with UC-764864 or DMSO control. The cells were counted daily for 4 days using an automated cell counter (Countess II FL from Life Technologies). […] UC-764864 was added at the indicated concentrations and cells were incubated with drug for 3 days, at which point cell viability was measured by MTS according to manufacturer's instructions. […]

Experiment [2] relates to SKM-1. Put plainly: Cell proliferation MTS assay. Format: cell-based. The settings on record: Homo sapiens; SKM-1, MTS, 24 hours. The method, then:
AML cell lines (5×10^3 cells/well) were seeded in 96-well plates and grown for 24 to 96 h in serum (10%)-containing medium in the presence or absence of inhibitors at the indicated concentrations. Proliferation was analyzed by means of an MTS assay using the CellTiter 96 Aqueous One Solution Cell Proliferation Assay (Promega, Madison, Wis., USA), according to the manufacturer's instructions. Data are mean with standard deviation from three independent experiments in technical triplicates. For the screening of 160 compounds from the UC library, the cell metabolic activity was assessed at 24 hours of treatment of MOLM-13 cells. Top 15 candidates were re-screened at 2 μM, and the cell metabolic activity was determined at 24 hours of treatment. In certain experiments, cell viability was determined by staining the cells with trypan blue at a 1/2 dilution and counting total number of viable cells upon treatment with UC-764864 or DMSO control. The cells were counted daily for 4 days using an automated cell counter (Countess II FL from Life Technologies). The cell proliferation in primary AMLs in FIG. 9E was performed as follows: 50,000 cells were plated in duplicate in a 96 well plate in IMDM containing 20% heat inactivated FBS plus 10 ng/ml of each SCF, IL3, IL6, TPO, and FLT3. UC-764864 was added at the indicated concentrations and cells were incubated with drug for 3 days, at which point cell viability was measured by MTS according to manufacturer's instructions.

Experiment [3] concerns the target T1, UBE2N/UBE2V1 (Homo sapiens, UniProt P61088).
T1 construct: purchased Enzo Life Science BML-UW9565
Put plainly: Thioester bond formation assay. It is filed as biochemical. To be noted: read-out: inhibition of UBE2N-Ub thioester conjugate formation. The method, then: An in vitro Ubiquitin-E2 thioester (TE) bond formation assay was performed as described (Enzo Life Science, #BML-UW9920-0001, Farmingdale, N.Y.). The reaction was prepared as follows: 10×E2 (UBE2N/Mms2, No. BML-UW9565; UbcH5a, No. BML-UW9050; or UbcH6, Prod. No. BML-UW8710) were incubated with UC-764864 or UC-764865 at 1 or 2 μM for 30 minutes at room temperature. After the incubation period, the following reagents were added to the reaction: distilled water, 10× ubiquitination buffer, inorganic pyrophosphatase solution (100 U/mL in 20 mM Tris-HCl, pH 7.5, Sigma, 83205, St. Louis, Mo.), 50 mM DTT, 0.1 M Mg-ATP, 20×E1 (recombinant human ubiquitin-activating enzyme) and 20× biotinylated ubiquitin to a final volume of 10 p.l. The mixture was incubated for 4 hours at 37° C. The reaction was stopped by adding 10 p.l 2× non-reducing gel loading buffer. 15 p.l of the samples were run on SDS-PAGE gels and transferred to PVDF membrane. […] After washing the membrane for 6×10 mins with TBS-T on a rocking platform, total ubiquitin was detected with ECL detection reagent (Pierce™ ECL Western Blotting Substrate, #32106, Appleton, Wis.) according to the manufacturer's instructions. Detect emitted signal with Biorad ChemiDoc™ MP and analyzed with Image lab software 6.0.1 (Biorad, Hercules, Calif.) or Image J [67]. […]

For experiment [4], the system named is cord blood CD34+ cells. Put plainly: Colony formation (clonogenic) assay in healthy cells. Format: cell-based, human. Here is the method:
In order to determine viability after UBE2N knockdown or inhibition, 1×10^6 AML cells were washed with PBS and mixed with pre-diluted APC-conjugated Annexin V (BD Pharmigen, Franklin Lakes, N.J.) and Propidium iodide (PI) (Invitrogen ThermoFisher 00-6990-42, Waltham, Mass.). Cells were stained at room temperature for 15 minutes and suspended in 0.5 ml of Annexin V incubation buffer (eBiosciences 88-8007-74, San Diego, Calif.) for analysis using a BD FACS Canto System (BD Biosciences, San Jose, Calif.). For UBE2N knockdown experiments, PI−/GFP+ cells were sorted using a MoFlo XDP sorter (Beckman Coulter, Brea, Calif.) and plated in methylcellulose (StemCell Technologies H4236, Vancouver, CA) at 1000 cells/ml in 35 mm culture dishes. For UBE2N inhibition experiments, cell lines were plated in methycellulose (StemCell Technologies H4236, Vancouver, CA) at the indicated concentrations of inhibitor. Cells were incubated at 37° C. and 5% CO2. Colonies were scored after 7 days in culture. For UBE2N or UBE2N C87S overexpression experiments, MOLM-13 cells were transduced with lentivectors overexpressing UBE2N wild type or mutant in the presence of polybrene (8 μg/ml). […] Colonies were scored at 7 days. […] Colonies were manually scored at 14-16 days after plating or counted with STEMVision (StemCell Technologies, Vancouver, CA).

The subject of experiment [5] is patient-derived AML cells. Put plainly: Patient-derived xenografts (PDX) in NSGS mice. Format: in vivo. In general terms: A xenograft is tissue or cells of one species grown in another, often human tumour cells in immunodeficient mice.

T1 sequence (P61088 whole entry): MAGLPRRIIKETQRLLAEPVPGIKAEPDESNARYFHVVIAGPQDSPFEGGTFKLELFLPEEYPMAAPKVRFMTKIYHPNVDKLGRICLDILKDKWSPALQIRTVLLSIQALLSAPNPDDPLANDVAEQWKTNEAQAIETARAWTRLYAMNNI
T1 sequence (Q13404 whole entry partner): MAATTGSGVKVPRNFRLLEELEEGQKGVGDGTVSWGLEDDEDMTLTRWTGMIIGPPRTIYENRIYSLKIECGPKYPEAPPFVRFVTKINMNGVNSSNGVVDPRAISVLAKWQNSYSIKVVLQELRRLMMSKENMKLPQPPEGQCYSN

Broadly, the IC50 is the point on the concentration scale where inhibition reaches its midpoint. The term inhibition denotes the change of the read-out against control, counted positive when it falls. In the case of `CCc1ccc(C(=O)C=CSc2nc3ccc(C)cc3[nH]2)cc1` [UC-764864, 1-(4-ethylphenyl)-3-[(6-methyl-1H-benzimidazol-2-yl)sulfanyl]prop-2-en-1-one], the “sensitivity class of the other 20 PDX AMLs” value in experiment [1] (20 of 26 PDX AMLs) was “resistant”. Also, the “sensitivity class of PDX AMLs JM1, JM7, JM18, JM26, JM30, JM40” value in experiment [1] (six of 26 PDX AMLs) was “sensitive”. This compound also displayed a concentration for half-maximal inhibition (IC50) in experiment [2] of 400 nM. Also, the inhibition at 1 µM in experiment [3] (1 μM) was determined as 20%. The inhibition at 2 µM in experiment [3] (2 μM) amounted to 80%. In addition, in experiment [4], the “clonogenic potential of cord blood CD34+ cells” value was “did not affect”.
Turning to `COc1ccc(C(=O)C=CSc2nc3ccc(C)cc3[nH]2)cc1` [UC-764865, 1-(4-methoxyphenyl)-3-[(6-methyl-1H-benzimidazol-2-yl)sulfanyl]prop-2-en-1-one], the “leukemic burden of mice xenografted with UBE2N-resistant sample AML-JM60” value in experiment [5] (25 mg/kg IP) was “did not decrease”. Also, the “total and ubiquitinated UBE2N in BM cells of mice xenografted with AML-JM40” value in experiment [5] (25 mg/kg, vs vehicle, immunoblot) is listed as “reduced”. The “reduction in leukemic burden of UBE2N-sensitive AML cells in the BM” value in experiment [5] (JM7, JM40, JM26, 25 mg/kg IP, P=0.008) is 30-60%.

These data come from patent US20220267753A1, “RATIONAL THERAPEUTIC TARGETING OF ONCOGENIC IMMUNE SIGNALING STATES IN MYELOID MALIGNANCIES VIA THE UBIQUITIN CONJUGATING ENZYME UBE2N” (CHILDREN'S HOSPITAL MEDICAL CENTER, priority 2019, published 2022).
